Laboratory results taken from ChEMBL document CHEMBL5608198 (Eur J Med Chem, 2024).
Active and inactive are the calls of the source. The rule behind the calls is not given here.

Test system: PBMC
Assay: Effect on cell proliferation of human PBMC into human Vgamma9Vdelta2 T cells assessed as decrease in HMBPP response upto 100 uM incubated for 3 days followed by compound washout with recurrent addition of IL-2 on every 3 days measured after 11 days in presence of HMBPP by flow cytometry
Assay type: functional, cell-based
Details: time 3.0 day

Row | Structure (SMILES) | Activity
1 | O=P(O)(O)OP(=O)(O)OC/C=C(/CO)Cc1ccc(Br)cc1 | Active
2 | Cc1ccc(C/C(=C\COP(=O)(O)OP(=O)(O)O)CO)cc1 | Active
3 | O=P(O)(O)OP(=O)(O)OC/C=C(/CO)Cc1ccccc1 | Active
